Data published in ChEMBL document CHEMBL6114980, “Single or double lipid-modified ultra-short antimicrobial peptides for treating infections caused by resistant bacteria” (Eur J Med Chem, 2025).
Values after ≈ are worked out from the molar mass of the structure shown. Active and inactive are the calls of the source. No cut-off for these calls is given here. Peptide text beside a SMILES is read from it. * marks the point of attachment. Decanoyl = CCCCCCCCCC(=O)*; Hexanoyl = CCCCCC(=O)*; Butyryl = CCCC(=O)*

Columns and labels:
[1] = system: Cell membrane; assay: Induction of inner membrane permeabilization in Escherichia coli at 0.5 to 1 times MIC measured for 135 mins by absorbance based analysis
[2] = system: Enterococcus faecalis; assay: Antibacterial activity against Enterococcus faecalis ATCC 29212 assessed as reduction in bacterial growth incubated for 18 to 24 hrs by broth microdilution method; format: functional; conditions: time 18-24 hrs
[3] = system: Klebsiella pneumoniae; assay: Antibacterial activity against Klebsiella pneumoniae ATCC 700603 assessed as reduction in bacterial growth incubated for 18 to 24 hrs by broth microdilution method; format: functional; conditions: time 18-24 hrs
[4] = system: Bacillus subtilis; assay: Antibacterial activity against Bacillus subtilis ATCC 23857 assessed as reduction in bacterial growth incubated for 18 to 24 hrs by broth microdilution method; format: functional; conditions: time 18-24 hrs
[5] = system: Staphylococcus aureus; assay: Antibacterial activity against Staphylococcus aureus ATCC 25923 assessed as reduction in bacterial growth incubated for 18 to 24 hrs by broth microdilution method; format: functional; conditions: time 18-24 hrs
[6] = system: Staphylococcus epidermidis; assay: Antibacterial activity against Staphylococcus epidermidis ATCC 12228 assessed as reduction in bacterial growth incubated for 18 to 24 hrs by broth microdilution method; format: functional; conditions: time 18-24 hrs
[7] = system: Acinetobacter baumannii; assay: Antibacterial activity against Acinetobacter baumannii ATCC 19606 assessed as reduction in bacterial growth incubated for 18 to 24 hrs by broth microdilution method; format: functional; conditions: time 18-24 hrs
[8] = system: Pseudomonas aeruginosa; assay: Antibacterial activity against Pseudomonas aeruginosa ATCC 27853 assessed as reduction in bacterial growth incubated for 18 to 24 hrs by broth microdilution method; format: functional; conditions: time 18-24 hrs
[9] = system: Escherichia coli; assay: Antibacterial activity against Escherichia coli ATCC 25922 assessed as reduction in bacterial growth incubated for 18 to 24 hrs by broth microdilution method; format: functional; conditions: time 18-24 hrs

For `CC(C)(C)CC(C)(C)c1ccc(OCCO)cc1`, the Activity [1] was “Active”.

Molecule `CCCC(=O)NCCCC[C@H](NC(=O)CCC)C(=O)N[C@@H](CCCCN)C(=O)N[C@@H](CCCCN)C(=O)N[C@@H](Cc1c[nH]c2ccccc12)C(=O)N[C@@H](Cc1c[nH]c2ccccc12)C(N)=O` (Butyryl-K(Butyryl)KKWW-NH2) has an MIC [2] of 128 µM (≈ 117 µg/mL), an MIC [3] of 128 µM (≈ 117 µg/mL) and an MIC [4] of 128 µM (≈ 117 µg/mL). For the same molecule, the MIC [5] was 128 µM (≈ 117 µg/mL), the MIC [6] was 128 µM (≈ 117 µg/mL) and the MIC [7] was 128 µM (≈ 117 µg/mL). It also gave an MIC [8] of 128 µM (≈ 117 µg/mL) and an MIC [9] of 128 µM (≈ 117 µg/mL).

In the case of `CCCC(=O)N[C@@H](CCCCN)C(=O)N[C@@H](CCCCN)C(=O)N[C@@H](Cc1c[nH]c2ccccc12)C(=O)N[C@@H](Cc1c[nH]c2ccccc12)C(N)=O` (Butyryl-KKWW-NH2), the MIC [2] is reported as 128 µM (≈ 91.6 µg/mL), the MIC [3] is reported as 128 µM (≈ 91.6 µg/mL) and the MIC [4] is reported as 128 µM (≈ 91.6 µg/mL). It also gave an MIC [5] of 128 µM (≈ 91.6 µg/mL), an MIC [6] of 128 µM (≈ 91.6 µg/mL) and an MIC [7] of 128 µM (≈ 91.6 µg/mL). The MIC [8] was 128 µM (≈ 91.6 µg/mL) and the MIC [9] was 128 µM (≈ 91.6 µg/mL).

Work on `CCCCCCCCCC(=O)NCCCC[C@H](NC(=O)CCCCCCCCC)C(=O)N[C@@H](CCCCN)C(=O)N[C@@H](CCCCN)C(=O)N[C@@H](Cc1c[nH]c2ccccc12)C(=O)N[C@@H](Cc1c[nH]c2ccccc12)C(N)=O` (Decanoyl-K(Decanoyl)KKWW-NH2) yielded an MIC [2] of 16 µM (≈ 17.3 µg/mL), an MIC [3] of 128 µM (≈ 139 µg/mL) and an MIC [4] of 8 µM (≈ 8.66 µg/mL). The MIC [5] was 16 µM (≈ 17.3 µg/mL), the MIC [6] was 8 µM (≈ 8.66 µg/mL) and the MIC [7] was 16 µM (≈ 17.3 µg/mL). For the same molecule, the MIC [8] was 16 µM (≈ 17.3 µg/mL) and the MIC [9] was 16 µM (≈ 17.3 µg/mL).

For `CCCCCCCCCC(=O)N[C@@H](CCCCN)C(=O)N[C@@H](CCCCN)C(=O)N[C@@H](Cc1c[nH]c2ccccc12)C(=O)N[C@@H](Cc1c[nH]c2ccccc12)C(N)=O` (Decanoyl-KKWW-NH2), the MIC [2] was 32 µM (≈ 25.6 µg/mL), the MIC [3] was 32 µM (≈ 25.6 µg/mL) and the MIC [4] was 4 µM (≈ 3.2 µg/mL). It also gave an MIC [5] of 16 µM (≈ 12.8 µg/mL), an MIC [6] of 16 µM (≈ 12.8 µg/mL) and an MIC [7] of 32 µM (≈ 25.6 µg/mL). For the same molecule, the MIC [8] was 8 µM (≈ 6.4 µg/mL) and the MIC [9] was 16 µM (≈ 12.8 µg/mL).

`CCCCCC(=O)NCCCC[C@H](NC(=O)CCCCC)C(=O)N[C@@H](CCCCN)C(=O)N[C@@H](CCCCN)C(=O)N[C@@H](Cc1c[nH]c2ccccc12)C(=O)N[C@@H](Cc1c[nH]c2ccccc12)C(N)=O` (Hexanoyl-K(Hexanoyl)KKWW-NH2) gave an MIC [2] of 128 µM (≈ 124 µg/mL), an MIC [3] of 128 µM (≈ 124 µg/mL) and an MIC [4] of 64 µM (≈ 62.1 µg/mL). The MIC [5] was 128 µM (≈ 124 µg/mL), the MIC [6] was 128 µM (≈ 124 µg/mL) and the MIC [7] was 128 µM (≈ 124 µg/mL). For the same molecule, the MIC [8] was 64 µM (≈ 62.1 µg/mL) and the MIC [9] was 128 µM (≈ 124 µg/mL).

`CCCCCC(=O)N[C@@H](CCCCN)C(=O)N[C@@H](CCCCN)C(=O)N[C@@H](Cc1c[nH]c2ccccc12)C(=O)N[C@@H](Cc1c[nH]c2ccccc12)C(N)=O` (Hexanoyl-KKWW-NH2) showed an MIC [2] of 128 µM (≈ 95.2 µg/mL), an MIC [3] of 128 µM (≈ 95.2 µg/mL) and an MIC [4] of 128 µM (≈ 95.2 µg/mL). For the same molecule, the MIC [5] was 128 µM (≈ 95.2 µg/mL), the MIC [6] was 128 µM (≈ 95.2 µg/mL) and the MIC [7] was 128 µM (≈ 95.2 µg/mL). The MIC [8] was 128 µM (≈ 95.2 µg/mL) and the MIC [9] was 128 µM (≈ 95.2 µg/mL).
